The target in one assay is T1, Glucocorticoid receptor (Homo sapiens, UniProt P04150).
T1 sequence (P04150 whole entry): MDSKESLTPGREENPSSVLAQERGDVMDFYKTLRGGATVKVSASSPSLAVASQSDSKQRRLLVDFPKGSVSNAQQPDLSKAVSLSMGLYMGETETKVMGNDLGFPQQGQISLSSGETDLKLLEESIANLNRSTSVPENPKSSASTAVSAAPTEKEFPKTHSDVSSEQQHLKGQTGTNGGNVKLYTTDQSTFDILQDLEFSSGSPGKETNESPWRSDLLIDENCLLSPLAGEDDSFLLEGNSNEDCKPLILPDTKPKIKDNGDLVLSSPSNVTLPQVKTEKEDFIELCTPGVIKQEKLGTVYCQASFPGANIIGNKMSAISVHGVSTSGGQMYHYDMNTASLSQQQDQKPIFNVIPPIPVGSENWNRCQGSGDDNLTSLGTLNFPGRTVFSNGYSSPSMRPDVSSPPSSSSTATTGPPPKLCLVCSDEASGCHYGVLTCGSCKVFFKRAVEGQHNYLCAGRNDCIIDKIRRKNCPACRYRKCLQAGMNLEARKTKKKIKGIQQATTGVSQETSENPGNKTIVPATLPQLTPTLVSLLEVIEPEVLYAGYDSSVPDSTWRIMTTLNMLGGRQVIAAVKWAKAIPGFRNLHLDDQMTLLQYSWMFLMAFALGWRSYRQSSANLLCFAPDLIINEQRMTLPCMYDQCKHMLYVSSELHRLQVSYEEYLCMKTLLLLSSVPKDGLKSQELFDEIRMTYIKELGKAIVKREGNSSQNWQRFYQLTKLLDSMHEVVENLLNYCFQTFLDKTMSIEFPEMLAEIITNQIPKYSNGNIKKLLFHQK
In kind it is functional.

Assay [1] addresses Vascular endothelial growth factor receptor 2 (Homo sapiens, UniProt P35968). In kind it is functional.
In assay [2] the target is T2, Endothelin receptor type B (Homo sapiens, UniProt P24530).
T2 sequence (P24530 whole entry): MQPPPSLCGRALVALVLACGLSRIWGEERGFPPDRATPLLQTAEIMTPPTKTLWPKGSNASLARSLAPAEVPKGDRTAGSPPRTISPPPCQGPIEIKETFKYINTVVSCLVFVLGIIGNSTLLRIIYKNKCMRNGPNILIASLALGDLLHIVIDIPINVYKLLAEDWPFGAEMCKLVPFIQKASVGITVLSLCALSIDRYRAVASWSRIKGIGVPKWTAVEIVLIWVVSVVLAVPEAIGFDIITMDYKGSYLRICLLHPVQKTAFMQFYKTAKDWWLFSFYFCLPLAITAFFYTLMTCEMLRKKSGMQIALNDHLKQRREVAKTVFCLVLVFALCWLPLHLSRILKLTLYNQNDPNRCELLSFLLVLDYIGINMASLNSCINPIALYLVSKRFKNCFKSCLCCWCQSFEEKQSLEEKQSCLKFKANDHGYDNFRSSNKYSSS

In a further assay the target is Glucagon receptor (Homo sapiens, UniProt P47871).
The target in assay [3] is T3, Corticotropin-releasing factor receptor 2 (Homo sapiens, UniProt Q13324).
T3 sequence (Q13324 whole entry): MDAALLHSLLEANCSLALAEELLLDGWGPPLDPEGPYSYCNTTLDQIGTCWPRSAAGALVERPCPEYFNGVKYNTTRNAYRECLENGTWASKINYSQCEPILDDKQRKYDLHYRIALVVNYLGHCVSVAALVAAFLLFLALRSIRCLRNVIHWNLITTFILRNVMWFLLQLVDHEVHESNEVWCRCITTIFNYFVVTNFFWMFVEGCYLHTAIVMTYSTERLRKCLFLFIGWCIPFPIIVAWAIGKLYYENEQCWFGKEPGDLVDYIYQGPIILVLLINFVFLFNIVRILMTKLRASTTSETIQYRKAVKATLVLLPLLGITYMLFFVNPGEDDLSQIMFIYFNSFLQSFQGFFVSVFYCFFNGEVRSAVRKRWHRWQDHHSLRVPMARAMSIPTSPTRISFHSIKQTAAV

Assay [4] addresses Sodium channel protein type 5 subunit alpha (Homo sapiens, UniProt Q14524). In kind it is functional, cell-based.
The target in assay [5] is 5-hydroxytryptamine receptor 6 (Homo sapiens, UniProt P50406).
Assay [6] concerns the target Gamma-aminobutyric acid type B receptor subunit 1 (Homo sapiens, UniProt Q9UBS5).
A further assay addresses T4, Thromboxane A2 receptor (Homo sapiens, UniProt P21731).
T4 sequence (P21731 whole entry): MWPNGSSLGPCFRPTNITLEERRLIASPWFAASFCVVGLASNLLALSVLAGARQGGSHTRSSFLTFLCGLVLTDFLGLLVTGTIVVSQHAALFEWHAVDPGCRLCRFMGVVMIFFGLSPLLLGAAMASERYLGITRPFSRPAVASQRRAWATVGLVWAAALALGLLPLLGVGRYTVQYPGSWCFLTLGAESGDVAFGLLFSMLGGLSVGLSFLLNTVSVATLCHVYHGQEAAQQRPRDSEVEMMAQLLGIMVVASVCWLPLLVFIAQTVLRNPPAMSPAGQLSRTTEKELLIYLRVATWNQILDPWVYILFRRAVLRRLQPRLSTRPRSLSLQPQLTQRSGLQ
Type of assay: functional, cell-based.

The target in the next assay is Acetylcholinesterase (Homo sapiens, UniProt P22303). Type of assay: functional.
Chain of Acetylcholinesterase (P22303 whole entry): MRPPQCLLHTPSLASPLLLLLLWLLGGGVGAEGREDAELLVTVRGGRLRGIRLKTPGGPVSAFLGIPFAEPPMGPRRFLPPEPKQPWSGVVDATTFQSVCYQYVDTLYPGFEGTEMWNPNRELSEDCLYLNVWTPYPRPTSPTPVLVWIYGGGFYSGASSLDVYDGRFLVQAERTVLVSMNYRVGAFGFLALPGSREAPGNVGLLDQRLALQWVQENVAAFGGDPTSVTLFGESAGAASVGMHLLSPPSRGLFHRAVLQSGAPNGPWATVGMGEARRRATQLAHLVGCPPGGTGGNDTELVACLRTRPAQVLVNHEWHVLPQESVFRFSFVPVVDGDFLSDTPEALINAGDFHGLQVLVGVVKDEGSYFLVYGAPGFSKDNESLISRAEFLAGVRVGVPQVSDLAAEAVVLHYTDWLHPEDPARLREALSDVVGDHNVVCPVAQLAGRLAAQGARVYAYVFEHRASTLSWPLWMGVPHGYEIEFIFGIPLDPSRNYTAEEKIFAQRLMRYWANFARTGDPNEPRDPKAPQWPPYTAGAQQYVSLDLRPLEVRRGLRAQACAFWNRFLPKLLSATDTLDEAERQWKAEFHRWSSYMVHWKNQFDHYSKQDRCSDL
Note: assay procedure not described here.

Chain of Vascular endothelial growth factor receptor 2 (P35968 whole entry): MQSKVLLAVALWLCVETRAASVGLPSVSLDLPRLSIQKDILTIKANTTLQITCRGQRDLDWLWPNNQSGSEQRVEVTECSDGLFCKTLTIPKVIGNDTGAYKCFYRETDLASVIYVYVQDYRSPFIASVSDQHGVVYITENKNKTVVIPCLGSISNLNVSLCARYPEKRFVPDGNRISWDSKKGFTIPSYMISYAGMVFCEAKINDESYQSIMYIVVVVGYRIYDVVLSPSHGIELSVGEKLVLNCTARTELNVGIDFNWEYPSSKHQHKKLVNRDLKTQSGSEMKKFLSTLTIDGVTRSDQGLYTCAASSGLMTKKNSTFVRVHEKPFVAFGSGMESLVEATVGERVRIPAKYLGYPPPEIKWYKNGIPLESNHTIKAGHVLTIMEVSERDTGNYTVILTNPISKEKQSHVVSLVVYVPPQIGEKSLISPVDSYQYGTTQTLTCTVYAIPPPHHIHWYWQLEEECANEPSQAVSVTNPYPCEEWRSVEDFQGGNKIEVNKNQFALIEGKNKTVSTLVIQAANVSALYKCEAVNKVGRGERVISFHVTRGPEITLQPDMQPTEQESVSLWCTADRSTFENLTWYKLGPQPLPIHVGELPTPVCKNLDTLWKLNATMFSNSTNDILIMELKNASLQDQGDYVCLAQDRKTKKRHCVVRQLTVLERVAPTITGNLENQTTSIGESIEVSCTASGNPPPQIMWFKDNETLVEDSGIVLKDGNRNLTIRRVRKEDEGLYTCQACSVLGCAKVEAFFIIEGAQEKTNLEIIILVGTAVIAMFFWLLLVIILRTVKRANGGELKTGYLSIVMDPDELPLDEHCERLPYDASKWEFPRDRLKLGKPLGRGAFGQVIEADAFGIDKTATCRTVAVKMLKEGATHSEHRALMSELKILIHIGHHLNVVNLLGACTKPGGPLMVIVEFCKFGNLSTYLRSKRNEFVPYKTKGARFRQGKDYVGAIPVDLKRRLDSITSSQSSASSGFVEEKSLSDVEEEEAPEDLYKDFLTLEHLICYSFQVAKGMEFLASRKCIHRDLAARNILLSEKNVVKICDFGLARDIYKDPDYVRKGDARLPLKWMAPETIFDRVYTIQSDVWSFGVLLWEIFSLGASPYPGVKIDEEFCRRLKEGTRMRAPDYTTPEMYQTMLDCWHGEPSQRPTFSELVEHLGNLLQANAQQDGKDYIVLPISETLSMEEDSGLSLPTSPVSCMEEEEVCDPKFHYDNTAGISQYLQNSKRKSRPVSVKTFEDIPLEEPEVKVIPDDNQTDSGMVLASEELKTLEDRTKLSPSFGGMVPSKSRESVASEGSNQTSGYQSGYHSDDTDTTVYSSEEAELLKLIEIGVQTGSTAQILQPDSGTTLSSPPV
Chain of Sodium channel protein type 5 subunit alpha (Q14524 whole entry): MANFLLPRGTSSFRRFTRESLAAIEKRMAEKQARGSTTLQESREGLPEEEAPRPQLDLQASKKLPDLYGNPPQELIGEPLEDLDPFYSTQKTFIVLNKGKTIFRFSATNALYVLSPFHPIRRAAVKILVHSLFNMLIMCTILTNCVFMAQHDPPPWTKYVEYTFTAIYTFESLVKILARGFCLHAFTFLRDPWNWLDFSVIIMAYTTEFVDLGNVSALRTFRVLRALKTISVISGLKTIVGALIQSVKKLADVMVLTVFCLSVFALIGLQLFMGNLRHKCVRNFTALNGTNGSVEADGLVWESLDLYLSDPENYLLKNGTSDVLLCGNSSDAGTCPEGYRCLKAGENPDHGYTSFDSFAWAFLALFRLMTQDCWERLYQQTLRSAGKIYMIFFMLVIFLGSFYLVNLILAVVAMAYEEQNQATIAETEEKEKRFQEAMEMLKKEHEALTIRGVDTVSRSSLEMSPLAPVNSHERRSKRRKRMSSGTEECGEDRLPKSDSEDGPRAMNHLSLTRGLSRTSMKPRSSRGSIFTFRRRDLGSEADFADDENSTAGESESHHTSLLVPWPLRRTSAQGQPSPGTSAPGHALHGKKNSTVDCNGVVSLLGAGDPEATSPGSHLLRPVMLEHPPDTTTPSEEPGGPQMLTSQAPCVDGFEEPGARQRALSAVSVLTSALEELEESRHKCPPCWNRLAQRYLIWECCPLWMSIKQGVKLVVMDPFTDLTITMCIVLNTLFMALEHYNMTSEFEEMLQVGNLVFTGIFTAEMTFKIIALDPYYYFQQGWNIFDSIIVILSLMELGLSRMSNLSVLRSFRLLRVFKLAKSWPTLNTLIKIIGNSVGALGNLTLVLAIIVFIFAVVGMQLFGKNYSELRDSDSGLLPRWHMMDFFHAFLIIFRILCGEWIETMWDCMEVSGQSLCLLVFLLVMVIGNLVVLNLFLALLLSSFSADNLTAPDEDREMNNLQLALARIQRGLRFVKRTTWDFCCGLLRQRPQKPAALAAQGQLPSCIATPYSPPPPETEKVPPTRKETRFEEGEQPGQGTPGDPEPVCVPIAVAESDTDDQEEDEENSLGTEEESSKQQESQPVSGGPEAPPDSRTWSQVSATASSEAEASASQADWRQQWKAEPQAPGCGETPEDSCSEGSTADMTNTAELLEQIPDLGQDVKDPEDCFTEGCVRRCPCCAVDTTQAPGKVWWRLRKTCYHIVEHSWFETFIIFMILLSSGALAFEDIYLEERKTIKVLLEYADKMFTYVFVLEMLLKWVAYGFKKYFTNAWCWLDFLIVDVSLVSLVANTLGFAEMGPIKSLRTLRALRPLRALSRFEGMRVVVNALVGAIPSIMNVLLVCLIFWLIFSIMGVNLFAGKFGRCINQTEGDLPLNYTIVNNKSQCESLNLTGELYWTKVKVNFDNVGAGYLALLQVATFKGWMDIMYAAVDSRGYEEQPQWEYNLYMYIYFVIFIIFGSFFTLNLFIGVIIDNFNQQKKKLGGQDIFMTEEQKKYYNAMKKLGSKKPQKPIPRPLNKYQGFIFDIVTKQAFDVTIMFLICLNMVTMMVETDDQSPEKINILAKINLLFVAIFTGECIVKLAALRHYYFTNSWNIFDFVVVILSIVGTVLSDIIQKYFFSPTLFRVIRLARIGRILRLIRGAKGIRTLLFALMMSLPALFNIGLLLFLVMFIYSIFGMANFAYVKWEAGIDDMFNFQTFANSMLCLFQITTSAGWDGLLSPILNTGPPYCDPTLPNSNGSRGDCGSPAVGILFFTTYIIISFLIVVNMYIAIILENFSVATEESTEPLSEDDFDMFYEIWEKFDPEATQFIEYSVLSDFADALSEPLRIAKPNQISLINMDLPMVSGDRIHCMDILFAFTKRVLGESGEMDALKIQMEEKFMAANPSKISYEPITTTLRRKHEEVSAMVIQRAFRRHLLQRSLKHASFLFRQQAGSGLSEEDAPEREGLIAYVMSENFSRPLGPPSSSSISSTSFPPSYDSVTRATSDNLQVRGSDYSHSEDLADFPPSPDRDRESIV
Chain of Gamma-aminobutyric acid type B receptor subunit 1 (Q9UBS5 whole entry): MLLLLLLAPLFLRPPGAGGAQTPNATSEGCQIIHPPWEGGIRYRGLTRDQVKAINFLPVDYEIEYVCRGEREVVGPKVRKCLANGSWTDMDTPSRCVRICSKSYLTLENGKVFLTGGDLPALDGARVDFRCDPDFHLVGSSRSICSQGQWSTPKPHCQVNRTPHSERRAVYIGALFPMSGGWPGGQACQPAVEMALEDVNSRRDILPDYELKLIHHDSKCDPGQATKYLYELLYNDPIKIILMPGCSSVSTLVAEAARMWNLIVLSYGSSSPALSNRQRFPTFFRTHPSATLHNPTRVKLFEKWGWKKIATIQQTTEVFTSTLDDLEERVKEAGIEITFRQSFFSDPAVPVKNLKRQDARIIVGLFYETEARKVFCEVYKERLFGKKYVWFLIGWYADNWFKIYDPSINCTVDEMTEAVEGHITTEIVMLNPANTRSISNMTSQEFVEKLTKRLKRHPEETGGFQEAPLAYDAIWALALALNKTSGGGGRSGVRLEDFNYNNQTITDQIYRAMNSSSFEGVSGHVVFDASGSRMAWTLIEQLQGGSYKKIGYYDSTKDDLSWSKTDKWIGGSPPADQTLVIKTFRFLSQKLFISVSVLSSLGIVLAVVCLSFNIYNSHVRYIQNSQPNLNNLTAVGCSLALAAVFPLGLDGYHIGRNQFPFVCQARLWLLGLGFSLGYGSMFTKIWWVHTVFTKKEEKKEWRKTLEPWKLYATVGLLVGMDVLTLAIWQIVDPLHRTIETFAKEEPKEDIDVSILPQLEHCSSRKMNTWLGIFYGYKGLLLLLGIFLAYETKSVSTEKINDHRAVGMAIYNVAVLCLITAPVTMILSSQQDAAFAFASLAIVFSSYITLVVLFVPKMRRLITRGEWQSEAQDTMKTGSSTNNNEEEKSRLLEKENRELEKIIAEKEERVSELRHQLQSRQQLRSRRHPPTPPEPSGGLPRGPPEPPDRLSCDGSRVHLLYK

With `CN(C)CCC=C1c2ccccc2C(C)(C)c2ccccc21`, the AC50 (on Glucocorticoid receptor; in [1]) was over 30 µM each time.

In the case of `CCOC(=O)[C@H](CCc1ccccc1)N[C@@H](C)C(=O)N1[C@H](C(=O)O)C[C@@H]2CCC[C@@H]21`, the AC50 (in assay [2]; at Glucagon receptor; in [3]; in assay [4]) was over 30 µM throughout.

On to `CNC(=O)c1ccccc1Sc1ccc2c(/C=C/c3ccccn3)n[nH]c2c1` [AXITINIB], for which the AC50 on Glucocorticoid receptor was over 10 µM.

As for `CC[C@H]1OC(=O)[C@H](C)[C@@H](O[C@H]2C[C@@](C)(OC)[C@@H](O)[C@H](C)O2)[C@H](C)[C@@H](O[C@@H]2O[C@H](C)C[C@H](N(C)C)[C@H]2O)[C@](C)(O)C[C@@H](C)CN(C)[C@H](C)[C@@H](O)[C@]1(C)O` [AZITHROMYCIN], the AC50 in assay [2] is over 30 µM; at Glucagon receptor, over 30 µM; in [5], over 10 µM; in assay [3], over 30 µM; in assay [6] it was over 10 µM; in assay [4], over 30 µM.

`CC(C)C[C@H]1C(=O)N2CCC[C@H]2[C@]2(O)O[C@](NC(=O)[C@@H]3C=C4c5cccc6[nH]c(Br)c(c56)C[C@H]4N(C)C3)(C(C)C)C(=O)N12` [BROMOCRIPTINE]: the AC50 (in assay [2]; at Glucagon receptor; on Glucocorticoid receptor; in assay [1]; in assay [3]; at Thromboxane A2 receptor) was over 30 µM in each case. The molecule also came in with an AC50 at Acetylcholinesterase of over 30 µM.

Regarding `Cc1ccc(-c2cc(C(F)(F)F)nn2-c2ccc(S(N)(=O)=O)cc2)cc1` [CELECOXIB], the AC50 in assay [2] is over 30 µM; at Glucagon receptor, over 30 µM; in assay [5], over 10 µM; in assay [3], over 30 µM; in [6], over 10 µM.

For the molecule `CC1=C(C(=O)O)N2C(=O)[C@@H](NC(=O)[C@H](N)c3ccccc3)[C@H]2SC1` [CEPHALEXIN ANHYDROUS], the AC50 (in [2]; on Glucagon receptor; in assay [3]) was over 30 µM in each case.

Consider `CN(C)CCC(c1ccc(Cl)cc1)c1ccccn1` (stereo unspecified) [CHLORPHENIRAMINE], for which the AC50 was over 30 µM in assay [2]; over 30 µM on Glucagon receptor; over 10 µM in [5]; over 30 µM in assay [3]; over 30 µM in assay [4].

At Glucocorticoid receptor, `O=C1Nc2ccc(Cl)cc2[C@@](C#CC2CC2)(C(F)(F)F)O1` [EFAVIRENZ] registered a concentration at half-maximal activity (AC50) of over 30 µM.

For the molecule `O=C(OCC(O)CO)c1ccccc1Nc1ccnc2cc(Cl)ccc12` (stereo unspecified) [GLAFENINE], the AC50 in assay [1] is 13 µM; at Thromboxane A2 receptor it was 9.8 µM; at Acetylcholinesterase, over 30 µM.

`CCC1=C(C)CN(C(=O)NCCc2ccc(S(=O)(=O)NC(=O)N[C@H]3CC[C@H](C)CC3)cc2)C1=O` [GLIMEPIRIDE] yielded an AC50 at Glucocorticoid receptor of over 30 µM.

Turning to `C[C@]12CCC(=O)C=C1CC[C@@H]1[C@@H]2[C@@H](O)C[C@@]2(C)[C@H]1CC[C@]2(O)C(=O)CO` [HYDROCORTISONE], the AC50 (in assay [2]; at Glucagon receptor; in assay [3]) was over 30 µM in each case.

Take `CCC(C)n1ncn(-c2ccc(N3CCN(c4ccc(OCC5COC(Cn6cncn6)(c6ccc(Cl)cc6Cl)O5)cc4)CC3)cc2)c1=O` (stereo unspecified) [ITRACONAZOLE]: the AC50 in assay [2] is over 30 µM; on Glucagon receptor, over 30 µM; in [5], over 10 µM; in assay [3] it was over 30 µM; in assay [6], over 10 µM.

For the molecule `C[C@H]1CNCCc2ccc(Cl)cc21` [LORCASERIN], the AC50 (on Glucocorticoid receptor; in [1]) was over 30 µM in each case.

Turning to `C[C@@H](O)[C@H]1C(=O)N2C(C(=O)O)=C(S[C@@H]3CN[C@H](C(=O)N(C)C)C3)[C@H](C)[C@H]12` [MEROPENEM], the concentration at half-maximal activity (AC50) (at Glucocorticoid receptor; in [1]; at Thromboxane A2 receptor; at Acetylcholinesterase) was over 300 µM each time.

Consider `CNC1Cc2ccccc2N(C)c2ccccc21` (stereo unspecified) [METAPRAMINE], for which the AC50 (on Glucocorticoid receptor; in [1]; on Thromboxane A2 receptor; on Acetylcholinesterase) was over 30 µM in each case.

For `COc1ccc(CC(C)(C)NC[C@H](O)c2cc(O)cc3c2OCC(=O)N3)cc1` [OLODATEROL], the AC50 on Glucocorticoid receptor was over 30 µM; in assay [1], over 30 µM; on Acetylcholinesterase, over 30 µM; in [4] it was over 50 µM.

For `CCCN1C[C@H](CSC)C[C@@H]2c3cccc4[nH]cc(c34)C[C@H]21` [PERGOLIDE], the AC50 in assay [2] is over 30 µM; at Glucagon receptor, over 30 µM; on Glucocorticoid receptor, over 30 µM; in [1], over 30 µM; in [3] it was over 30 µM; in assay [6] it was over 10 µM.

For `C1CCC(C(CC2CCCCN2)C2CCCCC2)CC1` (stereo unspecified) [PERHEXILINE], the AC50 (at Glucocorticoid receptor; in assay [1]) was over 30 µM each time.

`c1cnc(N2CCN(Cc3ccc4c(c3)OCO4)CC2)nc1` [PIRIBEDIL]: the concentration at half-maximal activity (AC50) (at Glucocorticoid receptor; in assay [1]; at Thromboxane A2 receptor; on Acetylcholinesterase) was over 30 µM each time.

Molecule `COCCCN1CCC(NC(=O)c2cc(Cl)c(N)c3c2OCC3)CC1` [PRUCALOPRIDE] registered a concentration at half-maximal activity (AC50) at Glucocorticoid receptor of over 30 µM.

For `CS(=O)(=O)c1ccc(C2=C(c3ccccc3)C(=O)OC2)cc1` [ROFECOXIB], the AC50 is over 30 µM in [2]; over 30 µM on Glucagon receptor; over 10 µM in [5]; over 30 µM in assay [3]; over 10 µM in [6].

Regarding `Cc1cn([C@H]2C=C[C@@H](CO)O2)c(=O)[nH]c1=O` [STAVUDINE], the concentration at half-maximal activity (AC50) in assay [2] was over 30 µM; at Glucagon receptor it was over 30 µM; in [5], over 10 µM; in assay [1] it was over 30 µM; in [3], over 30 µM; on Thromboxane A2 receptor, over 30 µM. This molecule showed an AC50 in assay [6] of over 10 µM.

As to `Clc1ccc2nsnc2c1NC1=NCCN1` [TIZANIDINE], the AC50 (in [2]; at Glucagon receptor; in assay [3]) was over 30 µM in each case.

Take `N[C@@H]1[C@H]2CN(c3nc4c(cc3F)c(=O)c(C(=O)O)cn4-c3ccc(F)cc3F)C[C@@H]12` [TROVAFLOXACIN]: the concentration at half-maximal activity (AC50) at Glucocorticoid receptor, at Thromboxane A2 receptor and on Acetylcholinesterase was over 30 µM throughout.

On to `Cc1cn([C@H]2C[C@H](N=[N+]=[N-])[C@@H](CO)O2)c(=O)[nH]c1=O` [ZIDOVUDINE], for which the AC50 in assay [2] is over 30 µM; at Glucagon receptor it was over 30 µM; in assay [3], over 30 µM; in [6], over 10 µM; in [4], over 30 µM.

What is called AC50 is the concentration at which the activity in the assay is half-maximal.
